Measurements reported in ChEMBL document CHEMBL4811216, “Chemotherapy for human schistosomiasis: how far have we come? What's new? Where do we go from here?” (RSC Med Chem, 2020).

Experiments:
[1] = target: HDAC1 (histone deacetylase 1) (Homo sapiens, UniProt Q13547); assay: Inhibition of human HDAC1 using Z-Lys(Ac)-AMC as substrate at 1 uM by fluorimetric method relative to control; settings: HDAC1 enzyme, probe Z-Lys(Ac)-AMC
[2] = test system: Schistosoma mansoni; assay: Antischistosomal activity against Schistosoma mansoni NTS assessed as worm mortality at 10 uM measured up to 72 hrs by microscopic method relative to control; format: functional; settings: time hrs <=72
[3] = test system: Schistosoma mansoni; assay: Antischistosomal activity against adult Schistosoma mansoni assessed as worm mortality at 10 uM measured up to 72 hrs by microscopic method relative to control; format: functional; settings: time hrs <=72
[4] = test system: Schistosoma mansoni; assay: Antischistosomal activity against adult Schistosoma mansoni measured up to 72 hrs by microscopic method; format: functional, organism-based
[5] = test system: Schistosoma mansoni; assay: Antischistosomal activity against Schistosoma mansoni incubated for 72 hrs by microscopic method; format: functional, organism-based
[6] = test system: Schistosoma haematobium; assay: Antischistosomal activity against Schistosoma haematobium at 10 uM measured after 72 hrs relative to control; format: functional
[7] = test system: Schistosoma mansoni; assay: microbe, parasite or virus in culture; settings: Liberian, 72 h
Description: Antischistosomal activity against Schistosoma mansoni Liberian NTS incubated for 72 hrs by microscopic method

[8] = test system: Schistosoma mansoni; assay: microbe, parasite or virus in culture; settings: 72 h
Description: Antischistosomal activity against Schistosoma mansoni incubated for 72 hrs by inverted microscopic method

[9] = Cytotoxicity against Biomphalaria alexandrina incubated for 24 hrs
[10] = test system: Schistosoma mansoni; assay: Antischistosomal activity against Schistosoma mansoni Puerto-Rican assessed as worm mortality incubated for 5 days by stereomicroscopic method; format: functional, organism-based; settings: 120 h; for IC90: time 5 day
[11] = test system: Schistosoma mansoni; assay: Antischistosomal activity against Schistosoma mansoni Egyptian assessed as worm mortality incubated for 5 days by stereomicroscopic method; format: functional, organism-based; settings: 120 h; for IC90: time 5 day
[12] = test system: Schistosoma mansoni; assay: Antischistosomal activity against Schistosoma mansoni assessed as worm mortality at 5 ug/ml incubated for 5 days by stereomicroscopic method relative to control; format: functional; settings: 120 h, time 5 day
[13] = Cytotoxicity against Biomphalaria alexandrina incubated for 24 hrs relative to control; set-up: concentration or dose not given beside the values

Sequence of HDAC1 (histone deacetylase 1) (Q13547 whole entry): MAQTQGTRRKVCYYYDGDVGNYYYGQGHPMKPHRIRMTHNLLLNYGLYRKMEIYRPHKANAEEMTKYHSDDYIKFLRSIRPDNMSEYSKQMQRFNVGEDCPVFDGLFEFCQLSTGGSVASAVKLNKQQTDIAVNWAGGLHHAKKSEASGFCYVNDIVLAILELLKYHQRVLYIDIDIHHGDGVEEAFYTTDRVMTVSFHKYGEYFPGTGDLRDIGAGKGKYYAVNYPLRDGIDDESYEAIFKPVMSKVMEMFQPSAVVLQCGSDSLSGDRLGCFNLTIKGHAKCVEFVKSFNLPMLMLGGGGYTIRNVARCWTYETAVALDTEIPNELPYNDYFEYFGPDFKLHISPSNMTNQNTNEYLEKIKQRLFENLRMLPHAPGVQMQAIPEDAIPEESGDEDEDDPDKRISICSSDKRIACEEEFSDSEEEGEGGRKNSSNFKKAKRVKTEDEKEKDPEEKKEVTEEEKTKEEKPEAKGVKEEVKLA

SMILES: O=C(NO)c1cccc(C(=O)NOCCc2ccccc2)c1
- inhibition at 1 µM [1]: < 10%

SMILES: COc1ccc(Nc2cc(C(F)(F)F)c(C#N)c3nc4ccccc4n23)cc1
- mortality at 10 µM [2]: > 70%
- mortality at 10 µM [3]: > 60%
- IC50 [4]: 200 nM

SMILES: CCNCCNc1cc(C2CCCCC2)c(C#N)c2nc3ccccc3n12
- mortality at 10 µM [2]: > 70%
- IC50 [4]: 200 nM

SMILES: CC(Nc1cc(C(F)(F)F)cc2nc3cc(Cl)c(Cl)cc3n12)c1ccc(S(C)(=O)=O)cc1 (stereo not given)
- IC50 [5]: 200 nM

SMILES: O=C(NO)c1cccc(C(=O)NNc2ccccc2)c1
- inhibition at 1 µM [1]: < 10%

SMILES: CCNCCNc1cc(-c2ccc(C(F)(F)F)cc2)c(C#N)c2nc3ncccc3n12
- mortality at 10 µM [2]: > 70%
- IC50 [4]: 200 nM

SMILES: Cc1ccc(CNc2cc(C(F)(F)F)c(C#N)c3nc4cc(Cl)c(Cl)cc4n23)cc1
- IC50 [5]: 200 nM

SMILES: CNc1nnc(Sc2cnn(-c3ccccc3)c(=O)c2Cl)s1
- Activity [6]: 100%
- IC50 [7]: 400 nM
- IC50 [8]: 2500 nM

SMILES: N#Cc1c(-c2ccc(C(F)(F)F)cc2)cc(NC2CCC(N)CC2)n2c1nc1cc(Cl)cc(Cl)c12 (stereo not given)
- mortality at 10 µM [2]: > 70%
- IC50 [4]: 200 nM

SMILES: CC(C)=CCC/C(C)=C\CNCCNC1C2CC3CC(C2)CC1C3 (stereo not given)
- Activity [6]: 82.5%
- IC50 [7]: 2900 nM
- IC50 [8]: 4900 nM

SMILES: N#Cc1c(C(F)(F)F)cc(NCc2ccc(F)cc2)n2c1nc1cc(Cl)c(Cl)cc12
- IC50 [5]: 200 nM

SMILES: CNC1CCN(c2cc(-c3ccc(C(F)(F)F)cc3)c(C#N)c3nc4ccccc4n23)C1 (stereo not given)
- mortality at 10 µM [2]: > 70%
- IC50 [4]: 200 nM

SMILES: Cn1c2nc3ccccc3c-2c(N2CCC(N3CCCCC3)CC2)c2cc(Cl)ccc21
- LC50 [9]: 2600 nM
- LC90 [9]: 3500 nM
- IC50 [10]: 7850 nM
- IC90 [10]: 13400 nM
- IC50 [11]: 3460 nM
- IC90 [11]: 8310 nM
- mortality at 5 µg/mL [12]: 100%
- mortality [13]: 100%

SMILES: N#Cc1c(C(F)(F)F)cc(NCc2ccc(OC(F)(F)F)cc2)n2c1nc1cc(Cl)c(Cl)cc12
- IC50 [5]: 200 nM

SMILES: Cn1c2nc3ccccc3c-2c(NCCN2CCOCC2)c2cc(Cl)ccc21
- LC50 [9]: 1300 nM
- LC90 [9]: 2200 nM
- IC50 [10]: 3540 nM
- IC90 [10]: 6830 nM
- IC50 [11]: 1260 nM
- IC90 [11]: 4050 nM
- mortality at 5 µg/mL [12]: 100%
- mortality [13]: 100%

SMILES: O=C(NO)c1cccc(C(=O)NOCc2cccc3ccccc23)c1
- inhibition at 1 µM [1]: < 10%

SMILES: COc1cccc(-n2nnnc2S(C)(=O)=O)c1
- Activity [6]: 87.7%
- IC50 [7]: 900 nM
- IC50 [8]: 6800 nM

SMILES: N#Cc1c(C(F)(F)F)cc(Nc2cnccn2)n2c1nc1ccccc12
- IC50 [5]: 200 nM
- mortality at 10 µM [2]: > 70%
- mortality at 10 µM [3]: > 60%
- IC50 [4]: 200 nM

SMILES: CCNCCNc1cc(-c2ccc(C(F)(F)F)cc2)c(C#N)c2nc3cccc(Cl)c3n12
- mortality at 10 µM [2]: > 70%
- IC50 [4]: 200 nM

SMILES: N#Cc1c(C(F)(F)F)cc(Nc2ccc(OC(F)(F)F)cc2)n2c1nc1cc(Cl)c(Cl)cc12
- IC50 [5]: 200 nM

SMILES: CCNCCNc1cc(-c2ccc(C(F)(F)F)cc2)c(C#N)c2nc3cccc(Br)c3n12
- mortality at 10 µM [2]: > 70%
- IC50 [4]: 200 nM

SMILES: CCNCCNc1cc(-c2ccc(C(F)(F)F)cc2)c(C#N)c2nc3cc(Cl)ccc3n12
- mortality at 10 µM [2]: > 70%
- IC50 [4]: 200 nM

SMILES: N#Cc1c(C(F)(F)F)cc(NCc2cccc(F)c2)n2c1nc1cc(Cl)c(Cl)cc12
- IC50 [5]: 200 nM

SMILES: CCNCCNc1cc(C2CCCC2)c(C#N)c2nc3ccccc3n12
- mortality at 10 µM [2]: > 70%
- IC50 [4]: 200 nM

SMILES: N#Cc1c(C(F)(F)F)cc(NCc2ccccn2)n2c1nc1cc(Cl)c(Cl)cc12
- IC50 [5]: 200 nM

SMILES: Clc1ccc2nc3[nH]c4ccccc4c3c(NCCN3CCOCC3)c2c1
- IC50 [10]: 7610 nM
- IC90 [10]: 11000 nM
- IC50 [11]: 3410 nM
- IC90 [11]: 6300 nM
- mortality at 5 µg/mL [12]: 100%

SMILES: Cn1c2nc3ccccc3c-2c(NCCN2CCCC2)c2cc(Cl)ccc21
- LC50 [9]: 1740 nM
- LC90 [9]: 2640 nM
- mortality [13]: 100%

SMILES: O=C(NO)c1cccc(C(=O)NOCc2cccc(Cl)c2Cl)c1
- inhibition at 1 µM [1]: < 10%

SMILES: N#Cc1c(C(F)(F)F)cc(Nc2ccccc2)n2c1nc1ccccc12
- mortality at 10 µM [2]: > 70%
- mortality at 10 µM [3]: > 60%
- IC50 [4]: 200 nM

SMILES: CCNCCNc1cc(-c2cccc(C(F)(F)F)c2)c(C#N)c2nc3ccccc3n12
- mortality at 10 µM [2]: > 70%
- IC50 [4]: 200 nM

SMILES: CN1CCC(Oc2cc(-c3ccc(C(F)(F)F)cc3)c(C#N)c3nc4ccccc4n23)CC1
- mortality at 10 µM [2]: > 70%
- IC50 [4]: 200 nM

SMILES: CCN(CC)CCCC(C)Nc1cc(-c2ccc(C(F)(F)F)cc2)c(C#N)c2nc3ccccc3n12 (stereo not given)
- mortality at 10 µM [2]: > 70%
- IC50 [4]: 200 nM

SMILES: Cc1csc(Nc2cc(C(F)(F)F)c(C#N)c3nc4ccccc4n23)n1
- mortality at 10 µM [2]: > 70%
- mortality at 10 µM [3]: > 60%
- IC50 [4]: 200 nM

SMILES: N#Cc1ccc(S(=O)(=O)Nc2cc(C(F)(F)F)cc3nc4cc(Cl)c(Cl)cc4n23)cc1
- IC50 [5]: 200 nM
